± gives the expanded uncertainty stated by the source.
Conditions: Liquid, Vibrating tube method

FCC(F)(F)F [1,1,1,2-tetrafluoroethane]
Conditions | mass density [kg/m3]
283.55 K, 40000 kPa | 1376.3 ± 2.1
283.55 K, 60000 kPa | 1413.1 ± 2.3
283.55 K, 80000 kPa | 1443.2 ± 2.5
283.56 K, 20000 kPa | 1328.7 ± 2
283.57 K, 5000 kPa | 1279.4 ± 2
283.57 K, 10000 kPa | 1297.9 ± 2
303.39 K, 1000 kPa | 1188.5 ± 2
303.39 K, 5000 kPa | 1212.5 ± 2
303.39 K, 10000 kPa | 1237 ± 2
303.39 K, 20000 kPa | 1275.9 ± 2
303.39 K, 40000 kPa | 1332.1 ± 2.1
303.39 K, 80000 kPa | 1407.4 ± 2.4
303.4 K, 60000 kPa | 1373.9 ± 2.2
322.89 K, 3000 kPa | 1120.9 ± 2.1
322.91 K, 5000 kPa | 1137.8 ± 2.1
322.91 K, 10000 kPa | 1172 ± 2
322.93 K, 20000 kPa | 1221.5 ± 2
322.93 K, 40000 kPa | 1288.4 ± 2.1
322.93 K, 60000 kPa | 1335.8 ± 2.2
322.94 K, 80000 kPa | 1372.8 ± 2.4
342.75 K, 3000 kPa | 1017.4 ± 2.2
342.75 K, 5000 kPa | 1047.5 ± 2.1
342.76 K, 10000 kPa | 1098.8 ± 2.1
342.77 K, 20000 kPa | 1164.1 ± 2
342.77 K, 40000 kPa | 1243.6 ± 2.1
342.78 K, 60000 kPa | 1297.3 ± 2.1
342.78 K, 80000 kPa | 1338.2 ± 2.3
362.57 K, 5000 kPa | 924.9 ± 2.3
362.57 K, 10000 kPa | 1015.4 ± 2.1
362.58 K, 20000 kPa | 1103.4 ± 2
362.59 K, 40000 kPa | 1198.4 ± 2.1
362.59 K, 60000 kPa | 1258.8 ± 2.1
362.59 K, 80000 kPa | 1303.8 ± 2.3

— the NIST ThermoML archive (doi:10.1021/acs.jced.8b00229)
